Data reported in patent US20150105252A1, “SUBSTITUTED PYRAZOLES AS HERBICIDES” (E I DU PONT DE NEMOURS AND COMPANY, priority 2013, published 2015).

Key:
[1] = test system: johnsongrass; assay: Test E preemergence; type: in vivo, Sorghum halepense; details: 21 days, scale 0 to 100
Description: (§1) Seeds of plant species selected from bermudagrass (Cynodon dactylon), Surinam grass (Brachiaria decumbens), crabgrass, large (large crabgrass, Digitaria sanguinalis), crabgrass, naked (naked crabgrass, Digitaria nuda), foxtail, green (green foxtail, Setaria viridis), johnsongrass (Sorghum halepense), kochia (Kochia scoparia), morningglory (pitted morningglory, Ipomoea lacunosa), nutsedge, purple (purple nutsedge, Cyperus rotundus), ragweed (common ragweed, Ambrosia elation), mustard, black (black mustard, Brassica nigra), guineagrass (Panicum maximum), dallisgrass (Paspalum dilatatum), barnyardgrass (Echinochloa crus-galli), sandbur (southern sandbur, Cenchrus echinatus), sowthistle (common sowthistle, Sonchus oleraceous), ryegrass, Italian (Italian ryegrass, Lolium multiflorum), signalgrass (broadleaf signalgrass, Brachiaria platyphylla), dayflower, VA (Virginia (VA) dayflower, Commelina virginica), bluegrass (annual bluegrass, Poa annua), quackgrass (Elytrigia repens), mallow (common mallow, Malva sylvestris), buckwheat, wild (wild buckwheat, Polygonum convolvulus), leafy spurge (Euphorbia esula), common chickweed (Stellaria media), wild poinsettia (Euphorbia heterophylla), pigweed, palmer (palmer pigweed, Amaranthus palmeri), and pigweed (redroot pigweed, Amaranthus retroflexus) were planted into a blend of loam soil and sand and treated preemergence with test chemicals formulated in a non-phytotoxic solvent mixture which included a surfactant.
(§2) Treated plants and controls were maintained in a greenhouse for 21 days, after which time all species were compared to controls and visually evaluated. Plant response ratings, summarized in Table E, are based on a scale of 0 to 100 where 0 is no effect and 100 is complete control. A dash (-) response means no test result.

[2] = test system: dallisgrass; assay: Test E preemergence; type: in vivo, Paspalum dilatatum; details: 21 days, scale 0 to 100
Description: as §1, §2

[3] = test system: sandbur; assay: Test E preemergence; type: in vivo, Cenchrus echinatus; details: 21 days, scale 0 to 100
Description: as §1, §2

[4] = test system: mallow; assay: Test E preemergence; type: in vivo, Malva sylvestris; details: 21 days, scale 0 to 100
Description: as §1, §2

[5] = test system: pigweed, palmer; assay: Test E preemergence; type: in vivo, Amaranthus palmeri; details: 21 days, scale 0 to 100
Description: as §1, §2

[6] = test system: hairy beggarticks; assay: Test F postemergence; type: in vivo, Bidens pilosa; details: scale 0 to 100
Description: (§3) Seeds of plant species selected from corn (Zea mays), soybean (Glycine max), velvetleaf (Abutilon theophrasti), lambsquarters (Chenopodium album), wild poinsettia (Euphorbia heterophylla), pigweed, palmer (palmer pigweed, Amaranthus palmeri), common waterhemp (Amaranthus rudis), surinam grass (Brachiaria decumbens), large crabgrass (Digitaria sanguinalis), crabgrass, Brazil (Brazilian crabgrass, Digitaria horizontalis), fall panicum (Panicum dichotomiflorum), giant foxtail (Setaria faberii), green foxtail (Setaria viridis), goosegrass (Eleusine indica), johnsongrass (Sorghum halepense), common ragweed (Ambrosia elation), barnyardgrass (Echinochloa crus-galli), southern sandbur (Cenchrus echinatus), arrowleaf sida (Sida rhombifolia), Italian ryegrass (Lolium multiflorum), dayflower, VA (Virginia (VA) dayflower, Commelina virginica), field bindweed (Convolvulus arvensis), cocklebur (common cocklebur, Xanthium strumarium), morningglory (Ipomoea coccinea), nightshade (eastern black nightshade, Solanum ptycanthum), kochia (Kochia scoparia), yellow nutsedge (Cyperus esculentus), and hairy beggarticks (Bidens pilosa), were planted into a silt loam soil and treated preemergence with test chemicals formulated in a non-phytotoxic solvent mixture which included a surfactant.
(§4) At the same time, plants from these crop and weed species and also horseweed (Canada horseweed, Conyza canadensis), smartweed (ladysthumb smartweed, Polygonum persicaria), waterhemp_RES1, (ALS & Triazine resistant common waterhemp, Amaranthus rudis), and waterhemp_RES2, (ALS & HPPD resistant common waterhemp, Amaranthus rudis) were treated with postemergence applications of test chemicals formulated in the same manner. Plants ranged in height from 2 to 18 cm for postemergence treatments (1- to 4-leaf stage). Treated plants and controls were maintained in a greenhouse for 14 to 21 days, after which time all species were compared to controls and visually evaluated. Plant response ratings, summarized in Table F, are based on a scale of 0 to 100 where 0 is no effect and 100 is complete control. A dash (-) response means no test result.

[7] = test system: cocklebur; assay: Test F preemergence; type: in vivo, Xanthium strumarium; details: scale 0 to 100
Description: as §3
as §4, with “A dash (-) response means no test result.” left out

SMILES | Plant response rating, Johnsongrass ([1]; 16 g ai/ha) | Plant response rating, Johnsongrass ([1]; 31 g ai/ha) | Plant response rating, Johnsongrass ([1]; 62 g ai/ha) | Plant response rating, Johnsongrass ([1]; 125 g ai/ha) | Plant response rating, Johnsongrass ([1]; 250 g ai/ha) | Plant response rating, Dallisgrass ([2]; 16 g ai/ha) | Plant response rating, Dallisgrass ([2]; 31 g ai/ha) | Plant response rating, Dallisgrass ([2]; 62 g ai/ha) | Plant response rating, Dallisgrass ([2]; 125 g ai/ha) | Plant response rating, Dallisgrass ([2]; 250 g ai/ha) | Plant response rating, Sandbur ([3]; 16 g ai/ha) | Plant response rating, Sandbur ([3]; 31 g ai/ha) | Plant response rating, Sandbur ([3]; 62 g ai/ha) | Plant response rating, Sandbur ([3]; 125 g ai/ha) | Plant response rating, Sandbur ([3]; 250 g ai/ha) | Plant response rating, Mallow ([4]; 16 g ai/ha) | Plant response rating, Mallow ([4]; 31 g ai/ha) | Plant response rating, Mallow ([4]; 62 g ai/ha) | Plant response rating, Mallow ([4]; 125 g ai/ha) | Plant response rating, Mallow ([4]; 250 g ai/ha) | further results
CCc1cc(C(=O)NCC(F)(F)F)nn1Cc1ccnc(C(F)(F)F)c1 [Compound 78, 5-ethyl-N-(2,2,2-trifluoroethyl)-1-[[(2-trifluoromethyl)-4-pyridinyl]methyl]-1H-pyrazole-3-carboxamide] | 40 | 80 | 85 | 100 | 100 | 90 | 100 | 100 | 100 | 100 | 40 | 50 | 90 | 95 | 100 | 100 | 100 | 100 | 100 | 100 | Plant response rating, Pigweed, Palmer ([5]; 16 g ai/ha): 40; Plant response rating, Pigweed, Palmer ([5]; 31 g ai/ha): 80; Plant response rating, Pigweed, Palmer ([5]; 62 g ai/ha): 100; Plant response rating, Pigweed, Palmer ([5]; 125 g ai/ha): 100; Plant response rating, Pigweed, Palmer ([5]; 250 g ai/ha): 100; Plant response rating, Hairy Beggarticks ([6]; Postemergence, 31 g ai/ha): 30; Plant response rating, Hairy Beggarticks ([6]; Postemergence, 125 g ai/ha): 50; Plant response rating, Hairy Beggarticks ([6]; Postemergence, 250 g ai/ha): 75; Plant response rating, Hairy Beggarticks ([6]; postemergence, 62 g ai/ha): 40; Plant response rating, Hairy Beggarticks ([6]; postemergence, 500 g ai/ha): 90
CCc1cc(C(=O)NC(C)C)nn1Cc1ccnc(C(F)(F)F)c1 [Compound 103] | 70 | 100 | 100 | 100 | 100 | 90 | 100 | 100 | 100 | 100 | 40 | 70 | 100 | 100 | 100 | 95 | 98 | 98 | 100 | 100 | 
CCOc1cc(C(=O)NCC(F)(F)F)nn1Cc1ccnc(C(F)(F)F)c1 [Compound 104] | 95 | 100 | 100 | 100 | 100 | 95 | 98 | 100 | 100 | 100 | 70 | 90 | 100 | 98 | 100 | 40 | 98 | 100 | 98 | 100 | Plant response rating, Hairy Beggarticks ([6]; Postemergence, 31 g ai/ha): 50; Plant response rating, Hairy Beggarticks ([6]; Postemergence, 125 g ai/ha): 60; Plant response rating, Hairy Beggarticks ([6]; Postemergence, 250 g ai/ha): 85; Plant response rating, Hairy Beggarticks ([6]; postemergence, 62 g ai/ha): 50; Plant response rating, Hairy Beggarticks ([6]; postemergence, 500 g ai/ha): 90
CCCc1cc(C(=O)NCC(F)(F)F)nn1Cc1ccnc(C(F)(F)F)c1 [Compound 105] | 35 | 80 | 98 | 98 | 100 | 20 | 95 | 100 | 100 | 100 | 5 | 50 | 70 | 95 | 98 | 100 | 100 | 100 | 100 | 100 | Plant response rating, Hairy Beggarticks ([6]; Postemergence, 31 g ai/ha): 40; Plant response rating, Hairy Beggarticks ([6]; Postemergence, 125 g ai/ha): 50; Plant response rating, Hairy Beggarticks ([6]; Postemergence, 250 g ai/ha): 70; Plant response rating, Hairy Beggarticks ([6]; postemergence, 62 g ai/ha): 50; Plant response rating, Hairy Beggarticks ([6]; postemergence, 500 g ai/ha): 85
CCOc1cc(C(=O)NC(C)C)nn1Cc1ccnc(C(F)(F)F)c1 [Compound 188] |  |  |  |  |  |  |  |  |  |  |  |  |  |  |  |  |  |  |  |  | Plant response rating, Hairy Beggarticks ([6]; Postemergence, 31 g ai/ha): 50; Plant response rating, Hairy Beggarticks ([6]; Postemergence, 125 g ai/ha): 50; Plant response rating, Hairy Beggarticks ([6]; Postemergence, 250 g ai/ha): 60; Plant response rating, Hairy Beggarticks ([6]; postemergence, 62 g ai/ha): 60; Plant response rating, Hairy Beggarticks ([6]; postemergence, 500 g ai/ha): 75
CCOc1cc(C(=O)NC2CC2)nn1Cc1ccnc(C(F)(F)F)c1 [Compound 189] | 25 | 100 | 100 |  |  | 75 | 100 | 100 |  |  | 0 | 20 | 90 |  |  | 100 | 98 | 100 |  |  | Plant response rating, Johnsongrass ([1]; 4 g ai/ha): 0; Plant response rating, Johnsongrass ([1]; 8 g ai/ha): 0; Plant response rating, Dallisgrass ([2]; 4 g ai/ha): 0; Plant response rating, Dallisgrass ([2]; 8 g ai/ha): 5; Plant response rating, Sandbur ([3]; 4 g ai/ha): 0; Plant response rating, Sandbur ([3]; 8 g ai/ha): 0; Plant response rating, Mallow ([4]; 4 g ai/ha): 90; Plant response rating, Mallow ([4]; 8 g ai/ha): 65
CCc1cc(C(=O)NC2CC2)nn1Cc1ccnc(OCC(F)(F)F)c1 [Compound 200] |  |  |  |  |  |  |  |  |  |  |  |  |  |  |  |  |  |  |  |  | Plant response rating, Cocklebur ([7]; 16 g ai/ha): 20; Plant response rating, Cocklebur ([7]; 62 g ai/ha): 30; Plant response rating, Cocklebur ([7]; 250 g ai/ha): 30
